# Reference: US8796241B2, “Therapy of tumors and infectious agents deficient in methylthioadenosine phosphorylase” (priority 2007, dated 2014)
# Assays:
# [1] = test system: MTAP-positive cells and cells lines; test: Applicants' tissue culture experiments on protection of MTAP-positive cells (summary statements); format: cell-based, human; mouse
# MTAP(+) HF cells [2] = test: Coulter counts of HF cell cultures; format: cell-based, human; conditions: for Coulter counts: x56 = cells/dish
# Description: For adherent cell types (e.g., HF, A549, MCF7) cells were plated in 60 mm -diameter plastic tissue culture dishes and incubated at 37° C. in a humidified 5% CO2 atmosphere, in Dulbecco's Modified Eagle's Medium (DME) with 10% fetal bovine serum (FBS). At the start of an experiment, medium was replaced with DME and 10% dialyzed FBS.
# (§1) For adherent cell types, cell numbers were determined periodically by releasing cells with trypsin (dead cells that were no longer adherent were removed by two prior rinses of the culture dish) and placing a portion of the resulting cell suspension in a Coulter counter. For cell types that grow in suspension, portions of the culture were counted directly, without trypsin treatment. Coulter counts of cells from each dish were done twice, and almost all experiments were done in duplicate. In the presentation of results, raw data for Coulter counts is given in some cases, while in others, counts have been rounded off to two to three significant figures. (Background Coulter counts—i.e., counts of diluent alone—were insignificant.)
# Cell cultures were treated with MeP, with or without 5′-dAdo or MTA, for 4 days. The cell cultures were then changed to fresh medium, with the addition of 30 μM Ade to inhibit further action of the analog. Two days later cultures were trypsinized and a portion of the suspension was counted.
# • A. F-Ade was added to cultures of HF cells, with varying amounts of 5′-dAdo. After 3 days, cell numbers were counted. • Initial cell count: 1,100 • After three days:
# • Cultures of human fibroblasts were treated with DAP, 5′-dAdo, MTA, adenine, or MTX. Thymidine (15 μM) was added to all cultures. • Initial count was: 1807 • Counts, as raw data, after 3 days of incubation, are shown below: […]
# • Human fibroblasts in culture were treated with 6-thioguanine (TG), 2,6-diaminopurine (DAP), or 5′-dAdo for 3 days. After trypsinization, cell numbers were counted. • Initial cell number: 296,000
# MTAP(−) A549 cells = test: Clonogenic assay of A549 cells; format: cell-based, human; conditions: for potentiation of killing of A549 cells by DAP: Example 9
# Description: (§2) Cell viability of adherent cell types was measured by clonogenic assay as follows: after releasing cells with trypsin and removing a portion of the cell suspension for Coulter counting, the remainder of the cell suspension was plated in serial dilutions in growth medium, without drugs. After a period sufficient for clones to reach a size visible by eye (usually 2 to 3 weeks), clones were stained with crystal violet in a saline/methanol solution. Dishes that had fewer than 100 clones were deemed suitable for counting. From these counts and from the dilution factors, the approximate number of viable cells, in the parent treatment dishes, was calculated. […] In clonogenic assays, clone size was often variable, especially after treatment with toxic drugs. Moreover, many of the very small clones may have arisen from cells detached during the weeks of incubation. […] Cloning efficiency for healthy, growing A549 cells was about 50%; for HF cells, efficiency was quite variable, ranging from 25 to 75% (perhaps because the HF cell stock varied, from experiment to experiment, in passage number).
# A549 cells were incubated for 4 days with additions shown below, and viable cells measured by clonogenic assay. (Results shown are approximate; see Methods) Cell count in dish at start: 40,000
# • MTAP(−) A549 lung tumor cell cultures were treated with F-Ade, with or without MTA, 5′-dAdo, or adenine (Ade), for three days. Coulter counts of cells, and viable cells as determined by clonogenic assay, are shown below: • Initial cell number: 10,340*
# • A549 cell cultures were treated with DAP, with or without 5′-dAdo or adenine, for three days. After trypsinization, one-fourth of the cell suspension was counted, and raw data is shown below, with duplicate counts for each sample. The cell suspension was also serially diluted for clonogenic assay. • Counts at start of experiment: Dish one: 36,480; 39,160; Dish two: 52,680; 51,360. • Initial viable cells by clonogenic assay: 180,000.
# • Cell cultures were treated with MTX or alanosine for one day. DAP was then added and 3 days later, cells were trypsinized and serially diluted for clonogenic assay. Results are shown below: • Initial viable cells: 146,000
# • A549 cells were plated, and after they had adhered to the substrate, medium was changed to methionine-free medium with 10% dialyzed serum. L-ethionine (Eth) and MTA were added, and after 4 days, cell cultures were trypsinized and serially diluted for clonogenic assay. • Initial number of viable cells: 160,000*
# • A549 cultures were treated with 6-thioguanine (TG) or 2,6,diaminopurine (DAP), or both, for 3 days. • Initial viable cells: 275,000 • After 3 days: […]
# MTAP-negative cell lines = test: Applicants' tissue culture experiments on MTAP-negative cell lines (summary statements); format: cell-based, human; mouse; conditions: co-administered inhibitor of de novo purine synthesis
# MTAP(+) HF cells [3] = test: Clonogenic assay of HF cells; format: cell-based, human
# Description: as §2
# • B. F-Ade was added to cultures of MTAP(+) HF cells, with or without 5′-dAdo, for 3 days. Cultures were then trypsinized and serially diluted for clonogenic assay. • Initial number of viable cells per dish: 45,000 • Viable cells after 3 days shown below:
# • HF cells were plated, and after they had adhered to the substrate, medium was changed to methionine-free medium, with 10% dialyzed serum. • Initial Coulter count: 73,000*; viable cells: 88,000 • After 3 days in methionine-free medium, with or without L-ethionine (Eth) or MTA: […]
# MTAP(+) ML-1 cells = test: Coulter counts of ML-1 suspension cultures; format: cell-based; conditions: for Increase in cell number/ml, No 5′-dAdo: 2 days, FU 3 μM, TG 20 μM, DAP 50 μM where present, initial Coulter count/ml 308,000; for inhibition of growth of MTAP(+) ML-1 cells: Example 14
# Description: (§3) For cell types that grow in suspension (e.g., ML-1, HL-60, K-562) medium was RPMI-1640 with 10% FBS (undialyzed).
# as §1
# (§4) For cells that grow in suspension, the effect of treatments was assessed solely by changes in Coulter count.
# • ML-1 cells were incubated in RPMI 1640 with 10% FBS with 5′-dAdo (60 μM) for 6 hours. 5-fluorouracil (FU), 6-thioguanine (TG), or 2,6-diaminopurine (DAP) were then added, and after 2 additional days, 0.5 ml was taken for Coulter counts. Initial Coulter count/ml: 308,000
# MTAP(−) HL-60 cells = test: Coulter counts of HL-60 suspension cultures; format: cell-based; conditions: six days, 5′-dAdo or Ade 60 μM added 3 hours before, where present, initial cell number/ml 8,160
# Description: as §3, §1, §4
# • HL-60 cells were grown in RPMI 1640 with 10% FBS. 5′-dAdo, adenine, or neither were added, and after 3 hours, 5-fluorouracil (FU) was added to selected dishes. Six days later, cell numbers were assessed in a Coulter counter. • Initial cell number/ml: 8,160
# [4] = test system: MTAP(+) HT29 colon carcinoma cells; test: Coulter counts of HT29 cultures; format: cell-based, human; conditions: 4 days, 5′-dAdo 60 μM added one day before, where present, initial count 46,000, x4 = cells/dish
# Description: as §1
# • 5′-dAdo was added to cultures of MTAP(+) HT29 colon carcinoma cells for one day. 5-fluorouracil (FU) was then added and 4 days later cultures were trypsinized, thoroughly dispersed into mostly single cells by vigorous pipetting, and counted. • Initial Coulter count at time of addition of FU: 46,000
# [5] = test system: human and mouse tumor cells; test: Killing of tumor cells by adenine analogs (Applicants' findings, no method given); format: cell-based
# [6] = test system: MTAP(+) hematopoietic cell progenitors; test: Assay of colony-forming cells from mouse bone marrow; format: cell-based
# Description: Method: The procedure for assay of colony-forming cells from mouse bone marrow was similar to methods described in the literature (see e.g., B. A. Teicher et al, Cancer Research, 47:513-518, 1987). In brief, cells were flushed from the femurs of Swiss mice, counted, and seeded into six-well tissue culture plates with supplemented McCoy's 5A medium, 15% FBS, 10 to 20% L929-cell conditioned medium as a source of colony-stimulating activity (L929 is MTAP-negative), 0.3% agar, and penicillin/streptomycin (op. cit. B. A. Teicher et al). Cells were seeded at two different densities: 50,000 and 250,000 cells per well. Control wells contained either no drugs, or adenine at 15 or 30 μM, or 5′-deoxyadenosine (5′-dAdo) at 15, 30, or 45 μM. Treatment wells contained 6-methylpurine (MeP) at 5 or 15 μM, 5′-deoxyadenosine (5′-dAdo) at 15 or 30 μM, and adenine at 15 or 30 μM, in various combinations. After eight days of incubation at 37° C. in a humidified 5% CO2 atmosphere, wells were fixed by the addition of 1 ml of 5% glutaraldehyde. Photographs were taken of a randomly selected portion of each well, as viewed (at fixed magnification) through a Nikon inverted microscope equipped with a camera.
# [7] = MTX 1 μM or alanosine 3 μM for one day, then DAP 40 μM, 3 days (where present), initial viable cells 146,000
structure (smiles),measurement,setting,value
Nc1nc2nn[nH]c2c(=O)[nH]1 [8-azaguanine],"protection of MTAP-positive cells, but not MTAP-negative cells, from the toxicity of the nucleobase analog",[1],selectively protected
"Nc1ncnc2nc[nH]c12 [Ade, adenine]",blocking of DAP toxicity in HF cells,MTAP(+) HF cells [2]; Example 8,blocked
same,blocking of MeP toxicity in A549 cells,MTAP(−) A549 cells; 10 μM MeP,blocked
same,blocking of DAP toxicity in A549 cells,"MTAP(−) A549 cells; 100 μM DAP, Example 7",did
same,blocking of F-Ade toxicity in A549 cells,MTAP(−) A549 cells; 1 to 2 μM F-Ade,blocked
"N[C@@H](CN(O)N=O)C(=O)O [Alanosine, alanosine]",potentiation of selective killing of MTAP-negative cells by adenine and methionine antagonists,MTAP-negative cell lines,potentiated
same,potentiation of killing of A549 cells by DAP,MTAP(−) A549 cells,strongly potentiated
same,Viable Cells,MTAP(−) A549 cells; [7],"118,000"
"CCSCC[C@H](N)C(=O)O [Eth, ethionine]",toxicity to HF cells,"MTAP(+) HF cells [3]; 40 μM L-ethionine, methionine-free medium",very toxic
same,Viable Cells,"MTAP(+) HF cells [3]; 3 days in methionine-free medium, Eth 40 μM, MTA 15 μM where present, initial viable cells 88,000","1,600"
same,Viable Cells,"MTAP(−) A549 cells; 4 days, methionine-free medium, Eth 40 μM, MTA 30 μM where present, initial viable cells 160,000","24,000"
same,Viable Cells,"MTAP(−) A549 cells; 4 days, methionine-free medium, Eth 80 μM, MTA 30 μM where present, initial viable cells 160,000","5,000"
"O=c1[nH]cc(F)c(=O)[nH]1 [FU, 5-fluorouracil]","Increase in cell number/ml, No 5′-dAdo",MTAP(+) ML-1 cells,"436,000 /ml"
same,inhibition of growth of MTAP(+) ML-1 cells,MTAP(+) ML-1 cells,inhibited growth
same,Coulter counts/ml,MTAP(−) HL-60 cells; FU 10 μM,"125,200 counts/ml"
same,Coulter counts/ml,MTAP(−) HL-60 cells; FU 30 μM,"62,400 counts/ml"
same,"protection of MTAP-positive cells, but not MTAP-negative cells, from the toxicity of the nucleobase analog",[1],selectively protected
same,Coulter counts,[4]; FU 3 μM,"65,300"
same,Coulter counts,[4]; FU 10 μM,"36,600"
same,Coulter counts,[4]; FU 30 μM,"25,500"
"CN(Cc1cnc2nc(N)nc(N)c2n1)c1ccc(C(=O)N[C@@H](CCC(=O)O)C(=O)O)cc1 [MTX, methotrexate]",Coulter counts,"MTAP(+) HF cells [2]; 3 days, MTX 10 μM, DAP 100 μM, 5′-dAdo, MTA or Ade 15 μM where present, thymidine 15 μM in all cultures, initial count 1807","3,455"
same,potentiation of selective killing of MTAP-negative cells by adenine and methionine antagonists,MTAP-negative cell lines,potentiated
same,potentiation of killing of A549 cells by DAP,MTAP(−) A549 cells,strongly potentiated
same,Viable Cells,MTAP(−) A549 cells; [7],"89,000"
"Cc1ncnc2nc[nH]c12 [MeP, 6-methylpurine]",Coulter counts,"MTAP(+) HF cells [2]; MeP 5 μM, 5′-dAdo 20 μM or MTA 10 μM where present, 4 days, then fresh medium with 30 μM Ade, 2 days, initial count 1,157","2,885"
same,toxicity to HF cells,"MTAP(+) HF cells [2]; MeP 5-10 μM, Example 3",strongly toxic
same,killing of human and mouse tumor cells,[5],very rapid and potent killing
same,toxicity to colony-forming murine hematopoietic progenitors,[6]; MeP at doses of 5 and 15 μM,highly toxic
same,colonies observed (each field of view),"[6]; wells seeded at 250,000 cells/well, eight days, MeP 5 or 15 μM, adenine or 5′-dAdo 15 or 30 μM where present, control approximately 40-50 colonies",no colonies
same,"toxicity to A549 cells, clonogenic assay",MTAP(−) A549 cells; 10 μM MeP,highly toxic
same,Viable Cells,"MTAP(−) A549 cells; 4 days, MeP 10 μM, MTA, 5′-dAdo or Ade 20 μM where present, cell count at start 40,000, approximate",0
"Nc1nc2nc[nH]c2c(=S)[nH]1 [TG, 6-thioguanine]",Increase in cells/dish,"MTAP(+) HF cells [2]; 3 days, TG 40 μM, DAP 50 μM, 5′-dAdo 60 μM where present, initial cell number 296,000","72,000 cells/dish"
same,inhibition of HF cell growth,MTAP(+) HF cells [2]; Example 15,inhibited
same,"Increase in cell number/ml, No 5′-dAdo",MTAP(+) ML-1 cells,"114,000 /ml"
same,inhibition of growth of MTAP(+) ML-1 cells,MTAP(+) ML-1 cells,inhibited growth
same,"protection of MTAP-positive cells, but not MTAP-negative cells, from the toxicity of the nucleobase analog",[1],selectively protected
same,Viable Cells,"MTAP(−) A549 cells; 3 days, TG 40 μM, DAP 50 μM where present, initial viable cells 275,000","200,000"
O=CN(O)CC(=O)O [hadacidin],potentiation of selective killing of MTAP-negative cells by adenine and methionine antagonists,MTAP-negative cell lines,potentiated
